Literature values, collected in US20050070607A1, “N-acetylcysteine compositions and methods for the treatment and prevention of cysteine/glutathione deficiency in diseases and conditions” (priority 2003, published 2005).
Read-outs that look alike come from different tables or passages of the source.

Legend:
[1] = test system: influenza or influenza-like episodes; conditions: frequency and severity of episodes, elderly and chronic non-respiratory disease; 1200 mg/day po; n 262; 6 months; De Flora 1997[46]
[2] = test system: non-insulin dependent diabetic (NIDDM) patients
[3] = test system: patients with polycystic ovary syndrome; conditions: circulating insulin levels and insulin sensitivity; 1.8-3 g daily depending on weight; n 33; 6 weeks; Fulghesu 2002[20]
[4] = test system: patients with high plasma Lp(a); conditions: plasma homocysteine; Lp(a) >0.3 g/l; 4000 mg daily po; n 11; 14 days; Wiklund 1996[277]
[5] = test system: HIV infected individuals
[6] = test system: patients with unstable angina pectoris
[7] = test system: Cystic Fibrosis (CF)
[8] = test system: subjects classified as slow clearers; conditions: .6 g oral daily, 60 days, Todisco 1985[38]
[9] = test system: cardiac risk patients; conditions: oxygen consumption, cardiac index, ST-depression during brief hyperoxia; 150 mg/kg IV; n 30; 30 min; Spies 1996[11]
[10] = test system: COPD subjects
[11] = test system: Exercise
[12] = test system: Alzheimer's Disease; conditions: MMSE, ADL and other psychometric tests; 50 mg/kg/day; n 47; 24 weeks; Adair 2001[60]
[13] = test system: acute lung injury

Which Beneficial effects [1] does the source give for `CC(=O)N[C@@H](CS)C(=O)O` [NAC, N-acetylcysteine] here?
The Beneficial effects was “Beneficial”.

And the Beneficial effects ([2]; erythrocyte GSH, GSH:GSSG ratio, plasma soluble VCAM-1, 1200 mg/day po, n 15, 1 month, De Mattia 1998[21])?
Its Beneficial effects is “Beneficial”.

And the “erythrocyte GSH concentration and rate of its synthesis” value ([2]; type 2 diabetics, two weeks of dietary supplementation, Jahoor ongoing study [197])?
Its value is “significant increases”.

What about the Beneficial effects [3] of the same compound?
Its Beneficial effects is “Beneficial”.

And the Beneficial effects [4]?
The Beneficial effects was “Beneficial”.

And the Beneficial effects ([5]; CD4 counts > 200/ul, plasma cysteine, rate of CD4 decline, 800 mg/day po, n 45, 4 months, Akerlund 1996[47])?
Its Beneficial effects is “Beneficial”.

What about the Beneficial effects ([5]; beginning of antiretroviral therapy, hematocrit, CD4 cell count, 600 mg/day, n 20, 180 days, Spada 2002[227]) of the same compound?
Its Beneficial effects is “Beneficial”.

And the Beneficial effects ([5]; immune function, 0.6-3.6 g depending on GSH levels po, n 69, 7 months, Breitkreutz 2000[50])?
The Beneficial effects was “Beneficial”.

And the “adverse events, highest reported long-term NAC dosage” value ([5]; in vivo)?
The value was “No adverse events requiring physician intervention”.

What about the Beneficial effects ([5]; whole blood GSH and T cell GSH, 3,200-8,000 mg/day po, n 81, 8 weeks, De Rosa 2000, Herzenberg 1997[48,49]) of the same compound?
The Beneficial effects was “Beneficial”.

And the Beneficial effects ([6]; NAC + nitroglycerin, incidence of acute myocardial infarction, 5 g IV, n 46, 6 hours, Horowitz 1988[175,176])?
Its Beneficial effects is “Beneficial”.

What about the Beneficial effects ([6]; nitroglycerin + NAC with conventional therapy, outcome events, 600 mg po, n 200, 4 months, Ardissino 1997[177]) of the same compound?
The Beneficial effects was “Beneficial”.

And the Beneficial effects ([7]; CF and primary ciliary dyskinesia, lung function, 600 mg < 30 kg or 800 mg > 30 kg per day po, n 54, 3 months, Stafanger 1988[40])?
Its Beneficial effects is “Beneficial”.

What about the Beneficial effects ([7]; air trapping and FEV1, NAC or Ambroxol 200 mg 3 times daily, n 36, 12 weeks, Ratjen 1985[274]) of the same compound?
The Beneficial effects was “Beneficial”.

And the Beneficial effects ([8]; n 161)?
Its Beneficial effects is “Beneficial”.

And the “improvement in mucociliary clearance” value ([8]; slow clearers)?
The value was “a 35% improvement in mucusalary”.

And the Beneficial effects [9]?
Its Beneficial effects is “Beneficial”.

What about the Beneficial effects ([10]; hydrogen peroxide formation in the airways, oral 600 mg fizzy, n 44, 12 months, Kasielski 2001[210]) of the same compound?
Its Beneficial effects is “Beneficial”.

What about the Beneficial effects ([10]; mucus viscosity, effective cough, clinical symptoms, 600 mg, n 60, 10 days, Verstraeten 1979[39]) of the same compound?
Its Beneficial effects is “Beneficial”.

And the Beneficial effects ([10]; quadriceps endurance, exercise induced oxidative stress, 1800 mg for 4 days and 600 mg the day of the test, n 9, Koechlin 2004[278])?
Its Beneficial effects is “Beneficial”.

What about the Beneficial effects ([11]; frail geriatric patients, knee extensor strength, plasma TNF, 1800 mg daily, n 44, 6 weeks, Hauer 2003[59]) of the same compound?
Its Beneficial effects is “Beneficial”.

What about the Beneficial effects ([11]; intense, intermittent exercise, reduced and oxidized GSH, 125 mg/kg/hr for 15 min, then 25 mg/kg/hr, n 8, Medved 2003[58]) of the same compound?
Its Beneficial effects is “Beneficial”.

What about the Beneficial effects ([11]; prolonged submaximal exercise, well trained individuals, performance, 125 mg/kg/hr for 15 min, then 25 mg/kg/20 min, Medved 2004[286]) of the same compound?
Its Beneficial effects is “Beneficial”.

And the Beneficial effects [12]?
The Beneficial effects was “Beneficial”.

And the Beneficial effects ([13]; RBC GSH, days of acute lung injury, cardiac index, NAC 70 mg/kg q 8 hr IV, OTZ 63 mg/kg q 8 hr IV, n 48, 10 days, Bernard 1997[222])?
The Beneficial effects was “Beneficial”.

What about the Beneficial effects ([13]; elastase activity, pretreatment 72 mg/kg bolus, 72 mg/kg over 12 hours IV, n 18, 12 hours, De Backer 1996[214]) of the same compound?
The Beneficial effects was “Beneficial”.

What about the Beneficial effects ([13]; mild-to-moderate ALI, systemic oxygenation, need for ventilatory support, 40 mg/kg/day IV, n 61, 3 days, Suter 1994[211]) of the same compound?
The Beneficial effects was “Beneficial”.
